The values below come from patent US12180174B2, “A2-73 crystalline polymorph compositions of matter and methods of use thereof” (ANAVEX LIFE SCIENCES CORP., priority 2018, dated 2024).

Data set [1] in a line: Solid form stability (storage, drying). It counts as physicochemical.
Data set [2] in a line: pH of a saturated solution. It counts as physicochemical. The following applies: saturated solution in water.
A short description of another data set: Solubility at defined pH. Type of data set: physicochemical.
Data set [3] in a line: Hygroscopicity / gravimetric vapor sorption (GVS). Type of data set: physicochemical. The following applies: for water uptake (GVS): 90% RH. How it is done: This is confirmed by gravimetric vapor sorption (GVS) analysis, showing minimal water update (0.3% w/w) up to 90% RH. […] (peak temperature at ca. 91° C.). Upon further heating, Form I appears to sublime, beginning above ca. 120° C. with a weight loss of ca. 99% observed by 212.6° C. ^1H NMR spectra and HPLC-MS results were consistent with the structure of A2-73 freebase. […] FIG. 15 is a […]polarized-light microscopy (PLM) of Freebase Form I. XRPD pattern of Anavex2-73 freebase Form I obtained using copper Ka radiation is shown in FIG. 16.

The subject of the next data set is Alzheimer's disease. Nature of the data set: Cognitive function of patients with Alzheimer's disease, transdermal patch. Type of data set: in vivo, human. How it is done:
A person presents with early signs of Alzheimer's disease. They are administered a pharmaceutical composition via transdermal patch containing 100 mg […]2-73 freebase with a 4 cm2 patch replaced approximately every three days administration for 120 days. Blood levels of about 10 ng/ml are being maintained. […] A person presents with signs of early onset Alzheimer's disease. They are administered via a 9 cm2 transdermal patch containing a pharmaceutical composition containing 200 mg […]2-73 freebase with the patch replaced weekly for 180 days. Blood levels of about 12 ng/ml are being maintained.

Data set [4] can be described thus: Solvent solubility screen. Type of data set: physicochemical. The following applies: for solubility: read-out: Approx. Solubility.
Data set [5] relates to unspecified progressive dementia. Nature of the data set: Cognitive function of patients with unspecified progressive dementia, enteric coated tablet. It counts as in vivo, human. Conditions: 180 days. The protocol:
A person with unspecified progressive dementia is administered 30 mg of […]2-73 fumarate in an enteric coated tablet every other day for 180 days. Blood levels reveal about 25 mg per day are being administered. […] A person with unspecified progressive dementia is administered 50 mg of […]2-73 freebase in an enteric coated tablet every other day for 180 days. Blood levels reveal about 20 mg per day are being administered.

The nature of data set [6]: Blood levels in patients on extended release dosage forms. The following applies: person. Type of data set: in vivo, human. The protocol: A person presents with early signs of Alzheimer's disease. They are administered a pharmaceutical composition via transdermal patch containing 100 mg ANAVEX2-73 freebase with a 4 cm2 patch replaced approximately every three days administration for 120 days. Blood levels of about 10 ng/ml are being maintained.
A person presents with signs of early onset Alzheimer's disease. They are administered via a 9 cm2 transdermal patch containing a pharmaceutical composition containing 200 mg ANAVEX2-73 freebase with the patch replaced weekly for 180 days. Blood levels of about 12 ng/ml are being maintained.
A person with unspecified progressive dementia is administered 30 mg of ANAVEX2-73 fumarate in an enteric coated tablet every other day for 180 days. Blood levels reveal about 25 mg per day are being administered.
A person with unspecified progressive dementia is administered 50 mg of ANAVEX2-73 freebase in an enteric coated tablet every other day for 180 days. Blood levels reveal about 20 mg per day are being administered.

The subject of the next data set is ULK1. Nature of the data set: ULK1 serine 555 phosphorylation, Western blot. It counts as cell-based, human. The following applies: 1 μM; HeLa cells. An excerpt: Activation of the serine/threonine protein kinase ULK1 (unc-51-like kinase 1) via phosphorylation at serine 555 indicates stimulation of the canonical autophagy pathway. […] It has to be mentioned that this activating ULK1 phosphorylation can be inhibited by mTOR as well as stimulated via AMPK kinase. Both are basal physiological sensors of nutritional conditions and key signal transducers of canonical autophagy stimulation. ULK1 is in fact the signal mediating the induction of the formation of the phagophore during the autophagy process and, therefore, a central promoter of autophagy. ULK1 itself functions in a complex with at least three protein partners: FI P200 (focal adhesion kinase family interacting protein of 200 kDa), ATG (autophagy-related protein) 13 (ATG13), and ATG101.
Cell culture and microscopy. HeLa and HEK293A cells were cultured in DMEM (Invitrogen, Carlsbad, CA, USA, 41965062) supplemented with active FBS (Life Technologies GmbH, Carlsbad, CA, USA, 10270106), 1×ABAM (Invitrogen, 15240-062) and 1 mM sodium pyruvate (Invitrogen, 1136-088). […] Proteins were detected by chemiluminescence using the Amersham Imager 600 (GE). Confocal fluorescence microscopical analyses of HEK293A cells stably expressing GFP-LC3B were performed with the laser scanning microscope LSM 710 (Zeiss, Oberkochen).
(In western blotting, separated proteins are transferred to a membrane and probed.)

In a further data set the test system is HeLa cells. Kind of data set: LC3-II autophagic flux, Western blot with Bafilomycin A1. Type of data set: cell-based, human. The following applies: 1 μM, BafiA1 2 μM, vs control. How it is done:
To study the effect of ANAVEX2-73 on autophagy, human HeLa cells were treated with the compound and autophagic activity was analyzed by investigating the flux of LC3-II. LC3-II is the lipidated form of LC3, which (partially) stays attached to autophagosomes and thus, gets degraded by lysosomes. Therefore, the quantification of the LC3-II flux, using Bafilomycin AI (BafiAi; 2 μM) for inhibition of lysosomal degradation, directly corresponds to cellular autophagic activity. […] There is a concentration-dependent and significant increase in the autophagic-flux following application of ANAVEX2-73: an increase of over 2-fold at 10 μM and over 1.5-fold at 1 μM ANAVEX2-73 (FIG. 35A). As standard positive control to provoke the induction of autophagy, HeLa cells were incubated with EBSS, which resembles nutrient deprivation as autophagy stimulus.
Cell culture and microscopy. HeLa and HEK293A cells were cultured in DMEM (Invitrogen, Carlsbad, CA, USA, 41965062) supplemented with active FBS (Life Technologies GmbH, Carlsbad, CA, USA, 10270106), 1×ABAM (Invitrogen, 15240-062) and 1 mM sodium pyruvate (Invitrogen, 1136-088). After medium change, the cells were treated for 2 h with 10, 1, and 0.1 μM ANAVEX2-73 and PRE-084 (Tocris, Bristol, UK, 0589), respectively; ANAVEX2-73 was provided by ANAVEX Life Sciences Corp, New York, NY, USA. Afterwards Bafilomycin A1 (Bafi.Ai; 2 μM) (Toronto Research Chemicals, North York, ON, Canada, B110000) or DMSO was added for a further 2 h and the cells were eventually harvested. Western blot analyses were performed as described previously. Briefly, cells were subjected to SDS-PAGE using precast NuPAGE 4%-12% Bis-Tris gels (Invitrogen, NP0322). Proteins were detected by chemiluminescence using the Amersham Imager 600 (GE). Confocal fluorescence microscopical analyses of HEK293A cells stably expressing GFP-LC3B were performed with the laser scanning microscope LSM 710 (Zeiss, Oberkochen).

Structures can show the parent of a compound that is named as a salt. Where two headings read alike, the source gives them in different places. Bounds are passed on as bounds.

As for `CN(C)CC1CCOC1(c1ccccc1)c1ccccc1.Cl` (racemic) [Form VIII, tetrahydro-N,N-dimethyl-2,2-diphenyl-3-furanmethanamine hydrochloride], the “form stability on drying” value in data set [1] (dried after isolation wet with water) is given as “once dried, it converts to Form I”.

The term solubility denotes how much of the substance goes into solution per volume. As for `CN(C)CC1CCOC1(c1ccccc1)c1ccccc1` (centres unmarked) [A2-73 dihydrogen phosphate Form I, tetrahydro-N,N-dimethyl-2,2-diphenyl-3-furanmethanamine], in data set [2], the “pH of a saturated solution” value stood at 2.66. In addition, the solubility in the data set “Solubility at defined pH” (pH 1.2, simulated gastric fluid, pH 1.2, read-out: solubility) is around 47.2 mg/mL; in “Solubility at defined pH” (pH 4.5), around 33.1 mg/mL. For the same compound, the hygroscopicity entry in data set [3] is recorded as “hygroscopic”.

In the case of `CN(C)CC1CCOC1(c1ccccc1)c1ccccc1` (centres unmarked) [A2-73 freebase Form I, tetrahydro-N,N-dimethyl-2,2-diphenyl-3-furanmethanamine], the cognitive function entry was “stabilizes during that period with no additional loss detected” with Alzheimer's disease (early onset Alzheimer's disease, patch 200 mg, 9 cm2, weekly, 180 days); “stabilizes during that period, with no additional loss detected” in the data set on Alzheimer's disease (early signs of Alzheimer's disease, patch 100 mg, 4 cm2, every three days, 120 days); “stabilizes during that period with no additional loss detected” in data set [5] (50 mg enteric coated tablet every other day). Also, the solubility is at least 200 mg/mL in data set [4] (1,4-dioxane, organic solvent or mixture); at least 200 mg/mL in data set [4] (1-butanol, organic solvent or mixture); at least 200 mg/mL in data set [4] (2-butanone, organic solvent or mixture); at least 200 mg/mL in [4] (N,N′-dimethylformamide, organic solvent or mixture); at least 200 mg/mL in data set [4] (acetone, organic solvent or mixture); at least 200 mg/mL in data set [4] (cyclohexane, organic solvent or mixture). In addition, the solubility was at least 200 mg/mL in data set [4] (dimethyl sulfoxide, organic solvent or mixture); at least 200 mg/mL in data set [4] (heptane, organic solvent or mixture); at least 200 mg/mL in data set [4] (methyl acetate, organic solvent or mixture); at least 200 mg/mL in data set [4] (methyl isobutyl ketone, organic solvent or mixture); at least 200 mg/mL in data set [4] (nitromethane, organic solvent or mixture); at least 200 mg/mL in data set [4] (tetrahydrofuran, organic solvent or mixture). Further, in data set [4] (water), the solubility is below 5 mg/mL. Besides, the “solubility in the solvents tested (summary)” value in [4] (all solvents of Table 10) is on record as “high solubility in all solvents tested, except water”. Also, the “amount administered per day as revealed by blood levels” value in data set [6] (50 mg enteric coated tablet every other day, 180 days) is reported as “about 20 mg per day”. The blood levels maintained result was “about 10 ng/ml” in data set [6] (transdermal patch 100 mg, 4 cm2, replaced approximately every three days, 120 days) and “about 12 ng/ml” in [6] (transdermal patch 200 mg, 9 cm2, replaced weekly, 180 days). Also, the water solubility result in the data set “Solubility at defined pH” (water) is reported as “not highly water soluble”. Further, in data set [3], the hygroscopicity entry is on record as “non-hygroscopic”. Moreover, in data set [3], the “water uptake (GVS)” value amounted to 0.3 % w/w. Moreover, in data set [3] (post-GVS), the “XRPD analysis post-GVS” value is recorded as “no change in form”.

For `CN(C)CC1CCOC1(c1ccccc1)c1ccccc1` (centres unmarked) [A2-73 hydrogen fumarate Form III, tetrahydro-N,N-dimethyl-2,2-diphenyl-3-furanmethanamine], in data set [2], the “pH of a saturated solution” value turned out to be 3.61. Besides, the “solubility at GI pH” value in the data set “Solubility at defined pH” (GI pH) is given as “lower solubility”. The “solubility at gastric pH” value in “Solubility at defined pH” (gastric pH (generally about 1.5 to 3.5)) is “moderate solubility”. The solubility entry is “ca. 43.0 mg/mL” in the data set “Solubility at defined pH” (pH 1.2); around 4.1 mg/mL in “Solubility at defined pH” (pH 4.5); around 12.6 mg/mL in the data set “Solubility at defined pH” (pH 6.8, aqueous buffer, pH 6.8, read-out: solubility). Further, the hygroscopicity result in [3] is recorded as “slightly hygroscopic”. Further, in [3], the “water uptake (GVS)” value is given as “ca. 0.9 % w/w”.

Regarding `CN(C)CC1CCOC1(c1ccccc1)c1ccccc1` (centres unmarked) [A2-73 sulfate Form II, tetrahydro-N,N-dimethyl-2,2-diphenyl-3-furanmethanamine], in data set [1] (post-storage at 40° C./75% RH), the “form stability on storage” value is reported as “metastable, converting to A2-73 sulfate Form I”.

As for `CN(C)CC1CCOC1(c1ccccc1)c1ccccc1` (centres unmarked) [ANAVEX2-73 fumarate, tetrahydro-N,N-dimethyl-2,2-diphenyl-3-furanmethanamine], in [5] (30 mg enteric coated tablet every other day), the cognitive function entry is listed as “stabilizes during that period with no additional loss detected”. In addition, the “amount administered per day as revealed by blood levels” value in data set [6] (30 mg enteric coated tablet every other day, 180 days) is “about 25 mg per day”.

Regarding `CN(C)CC1CCOC1(c1ccccc1)c1ccccc1.Cl` (centres unmarked) [Form II, tetrahydro-N,N-dimethyl-2,2-diphenyl-3-furanmethanamine hydrochloride], the hygroscopicity entry in data set [3] (hydrochloride) is “slightly hygroscopic”.

In the case of `CN(C)CC1CCOC1(c1ccccc1)c1ccccc1.Cl` (centres unmarked) [Form III, tetrahydro-N,N-dimethyl-2,2-diphenyl-3-furanmethanamine hydrochloride], the hygroscopicity result in data set [3] (hydrochloride) was “slightly-hygroscopic”.

`O=C(OCCN1CCOCC1)C1(c2ccccc2)CCCCC1` [PRE-084, 2-morpholin-4-ylethyl 1-phenylcyclohexane-1-carboxylate, reference compound]: the “ULK1 serine 555 phosphorylation” value in the data set with ULK1 is listed as “up to 1.5 fold”. The “increase in autophagic flux (LC3-II)” value with HeLa cells is “over 1.5 fold”.
